Laboratory results as given in US20210254056A1, “IDENTIFICATION AND TARGETED MODULATION OF GENE SIGNALING NETWORKS” (CAMP4 THERAPEUTICS CORPORATION, priority 2017, published 2021).

Test system: hepatocytes
Experiment: RNA-seq of hepatocytes treated with Phase III failure compounds
Settings: hepatocytes
Description: RNA-seq was performed to determine the effects of the compounds on hepatocytes.
Significance was determined by the criteria of FPKM≥0.5, a log 2(fold-change)≥1, and a […].

COc1cc(Nc2ncc(F)c(Nc3ccc4c(n3)N(COP(=O)(O)O)C(=O)C(C)(C)O4)n2)cc(OC)c1OC [fostamatinib]
significant modulation of expression of disease genes (RNA-seq, q≤0.05, genes in the value or listed in the block): significantly (q≤0.05) modulate expression
effect on disease gene expression (RNA-seq): effect on expression of too many disease genes
RNA-seq results: A1BG expression (gene A1BG): 0.01
RNA-seq results: AGTR1 expression (gene AGTR1): 0.25
RNA-seq results: AGXT expression (gene AGXT): 0.45
RNA-seq results: AHI1 expression (gene AHI1): 0.39
RNA-seq results: AMPD3 expression (gene AMPD3): −0.90
RNA-seq results: AMT expression (gene AMT): −0.28
RNA-seq results: ANGPTL3 expression (gene ANGPTL3): 0.24
RNA-seq results: ANKS4B expression (gene ANKS4B): 0.49
RNA-seq results: ANKS6 expression (gene ANKS6): 0.03
RNA-seq results: ANPEP expression (gene ANPEP): 0.49
RNA-seq results: AOC2 expression (gene AOC2): 0.64
RNA-seq results: APOA2 expression (gene APOA2): −0.31
RNA-seq results: APOA5 expression (gene APOA5): 0.97
RNA-seq results: APOB expression (gene APOB): 1.87
RNA-seq results: COG5 expression (gene COG5): −0.12
RNA-seq results: COG6 expression (gene COG6): 0.18
RNA-seq results: COL1A1 expression (gene COL1A1): −0.09
RNA-seq results: COX6A1 expression (gene COX6A1): 0.29
RNA-seq results: CP expression (gene CP): −0.16
RNA-seq results: CPS1 expression (gene CPS1): −0.56
RNA-seq results: CPT1A expression (gene CPT1A): −0.03
RNA-seq results: CPT2 expression (gene CPT2): 0.28
RNA-seq results: CROT expression (gene CROT): 0.19
RNA-seq results: CSPP1 expression (gene CSPP1): −0.09
RNA-seq results: CTC1 expression (gene CTC1): 0.04
RNA-seq results: CTDSP2 expression (gene CTDSP2): −0.06
RNA-seq results: CTH expression (gene CTH): 0.15
RNA-seq results: CTNS expression (gene CTNS): 0.1
RNA-seq results: CTSF expression (gene CTSF): 0.07
RNA-seq results: CTSK expression (gene CTSK): −0.13
RNA-seq results: CYB5A expression (gene CYB5A): −0.01
RNA-seq results: CYB5R3 expression (gene CYB5R3): 0.05
RNA-seq results, CYP2B6 expression (gene CYP2B6): 0.55
RNA-seq results: CYP2B6 expression (gene CYP2B6): −0.04
RNA-seq results, CYP2C19 expression (gene CYP2C19): 0.61
RNA-seq results: CYP2C19 expression (gene CYP2C19): −0.79
RNA-seq results, CYP2D6 expression (gene CYP2D6): 0.31
RNA-seq results: CYP2D6 expression (gene CYP2D6): −0.01
RNA-seq results, CYP3A4 expression (gene CYP3A4): 3.59
RNA-seq results: CYP3A4 expression (gene CYP3A4): 0.18
RNA-seq results, CYP7B1 expression (gene CYP7B1): 0.59
RNA-seq results: CYP7B1 expression (gene CYP7B1): −0.27
RNA-seq results: CYP27A1 expression (gene CYP27A1): −0.03
RNA-seq results, CYP39A1 expression (gene CYP39A1): 1.11
RNA-seq results: CYP39A1 expression (gene CYP39A1): −0.23
RNA-seq results: DAO expression (gene DAO): −0.06
RNA-seq results: DBT expression (gene DBT): −0.01
RNA-seq results: DCDC2 expression (gene DCDC2): −0.57
RNA-seq results: DCXR expression (gene DCXR): 0.23
RNA-seq results: FABP1 expression (gene FABP1): −0.33
RNA-seq results: FADD expression (gene FADD): 0.17
RNA-seq results: FAM111A expression (gene FAM111A): −0.14
RNA-seq results: FAM111B expression (gene FAM111B): 1.04
RNA-seq results: FAN1 expression (gene FAN1): 0.11
RNA-seq results: FARS2 expression (gene FARS2): −0.7
RNA-seq results: FASLG expression (gene FASLG): −0.31
RNA-seq results: FGA expression (gene FGA): −0.24
RNA-seq results: FGD1 expression (gene FGD1): 0.24
RNA-seq results: FGFR2 expression (gene FGFR2): −1.3
RNA-seq results: FIG4 expression (gene FIG4): −0.09
RNA-seq results: FIS1 expression (gene FIS1): 0.19
RNA-seq results: FTCD expression (gene FTCD): −0.37
RNA-seq results: FTH1 expression (gene FTH1): 0.34
RNA-seq results: FUCA1 expression (gene FUCA1): 0.04
RNA-seq results: FXN expression (gene FXN): −0.11
RNA-seq results: G6PC3 expression (gene G6PC3): 0.11
RNA-seq results: G6PC expression (gene G6PC): −0.55
RNA-seq results: G6PD expression (gene G6PD): 0.55
RNA-seq results: GALK1 expression (gene GALK1): 0.19
RNA-seq results: GALK2 expression (gene GALK2): 0.04
RNA-seq results: GALT expression (gene GALT): −0.13
RNA-seq results: GATA6 expression (gene GATA6): −0.12
RNA-seq results: GATM expression (gene GATM): −0.13
RNA-seq results: GBA expression (gene GBA): 0.02
RNA-seq results: GBE1 expression (gene GBE1): −0.01
RNA-seq results: GCH1 expression (gene GCH1): 0.04
RNA-seq results: GCKR expression (gene GCKR): −0.15
RNA-seq results: GCLC expression (gene GCLC): 0.18
RNA-seq results: GOSH expression (gene GOSH): 0.18
RNA-seq results: RRM2B (gene RRM2B): 0.45
RNA-seq results: RSAD1 (gene RSAD1): 0.22
RNA-seq results: SAMHD1 (gene SAMHD1): −0.22
RNA-seq results: SC5D (gene SC5D): 0.22
RNA-seq results: SCARB1 (gene SCARB1): −0.40
RNA-seq results: SCN9A (gene SCN9A): −0.97
RNA-seq results: SDCCAG8 (gene SDCCAG8): 0.11
RNA-seq results: SEPN1 (gene SEPN1): −0.18
RNA-seq results: SERAC1 (gene SERAC1): −0.05
RNA-seq results: SERPINA1 (gene SERPINA1): 0.31
RNA-seq results: SERPING1 (gene SERPING1): 0.27
RNA-seq results: SERPINI1 (gene SERPINI1): 0.67
RNA-seq results: SETBP1 (gene SETBP1): −0.46
RNA-seq results: SFXN4 (gene SFXN4): 0.01
RNA-seq results: SLC10A1 (gene SLC10A1): 0.97
RNA-seq results: SLC10A3 (gene SLC10A3): −0.64
RNA-seq results: SLC10A5 (gene SLC10A5): 1.23
RNA-seq results: SLC10A7 (gene SLC10A7): −0.12
RNA-seq results: SLC11A2 (gene SLC11A2): −0.54
RNA-seq results: SLC19A1 (gene SLC19A1): −0.37
RNA-seq results: SLC19A2 (gene SLC19A2): −0.01
RNA-seq results: SLC19A3 (gene SLC19A3): 0.18
RNA-seq results: SLC22A1 (gene SLC22A1): 0.16
RNA-seq results: SLC22A5 (gene SLC22A5): −0.46
RNA-seq results: SLC25A1 (gene SLC25A1): −0.04
RNA-seq results: SLC25A10 (gene SLC25A10): 0.24
RNA-seq results: SLC25A12 (gene SLC25A12): −0.27
RNA-seq results: SLC25A13 (gene SLC25A13): 0.22
RNA-seq results: SLC25A15 (gene SLC25A15): 1.61
RNA-seq results: SLC25A19 (gene SLC25A19): 0.07
RNA-seq results: SLC25A20 (gene SLC25A20): 0.62
RNA-seq results: SLC25A29 (gene SLC25A29): −0.40
RNA-seq results: SLC25A32 (gene SLC25A32): −0.06
